These results are taken from ChEMBL document CHEMBL1201862, “PubChem BioAssay data set” (2004).

Calls of active or inactive are those of the source.

In assay [1] the target is T1, DNA repair protein RAD52 homolog (Homo sapiens, UniProt P43351).
T1 sequence (P43351 whole entry): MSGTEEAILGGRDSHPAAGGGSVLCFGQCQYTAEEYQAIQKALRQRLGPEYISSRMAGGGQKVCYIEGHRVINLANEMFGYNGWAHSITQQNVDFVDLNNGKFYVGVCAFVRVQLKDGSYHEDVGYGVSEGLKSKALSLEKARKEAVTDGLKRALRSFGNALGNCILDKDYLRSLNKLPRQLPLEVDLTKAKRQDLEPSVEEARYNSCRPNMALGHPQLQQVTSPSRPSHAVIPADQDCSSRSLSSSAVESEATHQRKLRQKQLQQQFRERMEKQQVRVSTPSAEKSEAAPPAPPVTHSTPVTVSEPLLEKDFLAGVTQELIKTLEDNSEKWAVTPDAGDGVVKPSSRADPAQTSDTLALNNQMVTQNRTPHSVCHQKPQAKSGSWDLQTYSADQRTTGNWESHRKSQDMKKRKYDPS
Format: functional, biochemical.

Assay [2] addresses T2, Caspase-3 (Homo sapiens, UniProt P42574).
T2 sequence (P42574 whole entry): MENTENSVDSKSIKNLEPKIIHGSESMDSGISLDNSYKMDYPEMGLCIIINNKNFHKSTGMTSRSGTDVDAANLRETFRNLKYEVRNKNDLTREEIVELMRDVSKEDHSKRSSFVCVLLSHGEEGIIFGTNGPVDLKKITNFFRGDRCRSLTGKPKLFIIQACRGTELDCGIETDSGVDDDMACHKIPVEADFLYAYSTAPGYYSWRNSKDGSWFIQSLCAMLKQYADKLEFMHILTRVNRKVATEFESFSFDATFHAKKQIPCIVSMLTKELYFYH
In words: caspase-3 enzyme inhibitors, selectivity check, dose response, selectivity assay for caspase-6 allosteric inhibitor project, biochemical, fluorescence, cherry-picked samples (AID 743291).

Assay [3] has as its target SUMO-activating enzyme (Homo sapiens, UniProt Q9UBT2). As to the kind of experiment: inhibitors of in vitro SUMOylation cascade, primary screen, biochemical, HTRF, uHTS (AID 2006). It is filed as protein-complex assay. On the technique in general: Time-resolved FRET reads energy transfer from a long-lived donor to a nearby acceptor.

Sequence of SUMO-activating enzyme (Q9UBE0 whole entry): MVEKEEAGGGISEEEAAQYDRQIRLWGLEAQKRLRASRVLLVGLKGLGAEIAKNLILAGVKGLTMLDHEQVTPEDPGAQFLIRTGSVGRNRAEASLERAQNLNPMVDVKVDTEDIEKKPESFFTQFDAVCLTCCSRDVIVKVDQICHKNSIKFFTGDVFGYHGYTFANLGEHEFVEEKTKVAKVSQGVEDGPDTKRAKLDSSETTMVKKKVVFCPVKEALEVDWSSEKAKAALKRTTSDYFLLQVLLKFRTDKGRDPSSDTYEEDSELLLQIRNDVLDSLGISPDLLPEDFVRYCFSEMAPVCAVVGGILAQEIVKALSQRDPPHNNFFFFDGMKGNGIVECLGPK
Sequence of SUMO-activating enzyme (Q9UBT2 whole entry): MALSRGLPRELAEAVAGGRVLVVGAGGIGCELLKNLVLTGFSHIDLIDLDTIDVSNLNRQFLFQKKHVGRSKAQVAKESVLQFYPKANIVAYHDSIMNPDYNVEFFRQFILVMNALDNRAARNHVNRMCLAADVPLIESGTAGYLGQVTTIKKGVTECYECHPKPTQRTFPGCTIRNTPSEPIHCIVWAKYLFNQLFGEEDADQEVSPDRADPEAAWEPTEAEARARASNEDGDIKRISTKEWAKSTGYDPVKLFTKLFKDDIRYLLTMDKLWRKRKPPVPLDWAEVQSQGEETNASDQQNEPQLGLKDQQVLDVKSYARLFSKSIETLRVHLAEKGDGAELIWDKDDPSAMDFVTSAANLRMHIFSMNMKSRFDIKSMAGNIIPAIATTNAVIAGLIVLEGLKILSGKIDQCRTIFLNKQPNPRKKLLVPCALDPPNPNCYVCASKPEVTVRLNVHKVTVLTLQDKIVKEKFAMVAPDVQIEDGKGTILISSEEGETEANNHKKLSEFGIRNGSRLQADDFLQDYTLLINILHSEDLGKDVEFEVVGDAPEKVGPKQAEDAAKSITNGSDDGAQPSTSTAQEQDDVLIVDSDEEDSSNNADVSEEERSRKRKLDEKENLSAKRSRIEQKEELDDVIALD

Regarding `COc1cc2c(cc1OC)-c1c(OC)c(OC)cc3c1[C@H](C2)N(C)CC3`, the AC50 in assay [1] was 2.86 µM (active); in assay [2], 6.27 µM (active). `O=C1C(Cl)=C(N2CCC(C(=O)O)CC2)C(=O)c2ccccc21`: the IC50 in assay [3] is 24 µM (active).

A word on the AC50: it is the concentration at which the activity in the assay is half-maximal. One may read the IC50 as the midpoint of a concentration-inhibition curve.
